Test results taken from patent US5350765A, “Ether-containing inhibitors of 5-lipoxygenase” (Abbott Laboratories, priority 1993, dated 1994).

Biological target: T1, 5-Lipoxygenase (Homo sapiens, UniProt P09917)
T1 construct: endogenous in cells; host or cells: human heparinized whole blood (blood leukocytes), stimulated with calcium ionophore A23187
T1 sequence (P09917 1-674): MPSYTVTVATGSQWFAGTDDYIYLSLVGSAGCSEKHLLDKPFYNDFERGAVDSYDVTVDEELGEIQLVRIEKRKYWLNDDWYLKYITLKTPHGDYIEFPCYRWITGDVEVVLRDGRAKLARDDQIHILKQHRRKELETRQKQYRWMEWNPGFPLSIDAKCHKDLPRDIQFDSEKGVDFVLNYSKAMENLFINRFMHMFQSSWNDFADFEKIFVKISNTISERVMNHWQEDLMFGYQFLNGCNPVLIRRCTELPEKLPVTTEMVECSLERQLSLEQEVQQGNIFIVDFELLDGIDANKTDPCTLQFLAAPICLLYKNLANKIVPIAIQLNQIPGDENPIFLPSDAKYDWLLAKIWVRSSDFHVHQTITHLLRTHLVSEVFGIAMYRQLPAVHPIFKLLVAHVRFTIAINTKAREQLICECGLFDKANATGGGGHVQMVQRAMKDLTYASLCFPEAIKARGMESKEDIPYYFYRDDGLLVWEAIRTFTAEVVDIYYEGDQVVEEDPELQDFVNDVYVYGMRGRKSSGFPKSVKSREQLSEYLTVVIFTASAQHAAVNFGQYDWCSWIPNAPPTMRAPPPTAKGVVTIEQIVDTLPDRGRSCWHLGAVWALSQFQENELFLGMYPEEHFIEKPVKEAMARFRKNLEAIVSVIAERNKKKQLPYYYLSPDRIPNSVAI
Test: Inhibition of calcium ionophore-induced LTB4 biosynthesis in human whole blood
Type: cell-based
Conditions: A23187 8.3 μM; for IC50: human heparinized whole blood, 15 min preincubation at 37° C., 30 min, LTB4 by radioimmunoassay, read-out: IC50, in vitro inhibitory potency against 5-lipoxygenase from stimulated LTB4 formation in human whole blood
Procedure: Inhibition of leukotriene biosynthesis was evaluated in an assay, involving calcium ionophore-induced LTB4 biosynthesis expressed human whole blood. Human heparinized whole blood was preincubated with test compounds or vehicle for 15 min at 37° C. followed by calcium ionophore A23187 challenge (final concentration of 8.3 μM) and the reaction terminated after 30 min by adding two volumes of methanol containing prostaglandin B2 as an internal recovery standard. The methanol extract was analyzed for LTB4 using a commercially available radioimmunoassay.

[1] = human whole blood, read-out: % inhibition of stimulated LTB4 formation in human whole blood

SMILES	IC50 [µM]	inhibition at 12.5 µM [1] [%]	also measured
COC1(C#CCOCc2ccc3ccccc3c2)CCOCC1 [Example 1, 4-methoxy-4-[3-((napth-2-yl)methoxy)-prop-1-ynyl]tetrahydropyran]	3.8	–	–
COC1(C#CC(C)OCc2ccc3ccccc3c2)CCOCC1 (centres unmarked) [Example 2, 4-methoxy-4-[3-methyl-3-(((napth-2yl)methoxy))-prop-1-ynyl]tetrahydropyran]	–	95	–
COC1(/C=C/COCc2ccc3ccccc3c2)CCOCC1 [Example 3]	0.7	–	–
COC1(/C=C/C(C)OCc2ccc3ccccc3c2)CCOCC1 (stereo not drawn) [Example 4, 4-methoxy-4-[3-methyl-3-((napth-2yl)methoxy)- trans-prop-1-enyl]tetrahydropyran]	–	99	–
COC1(CCCOCc2ccc3ccccc3c2)CCOCC1 [Example 5, 4-methoxy-4-[3-((napth-2yl)methoxy)-prop-1-yl]tetrahydropyran]	1.5	–	–
COC1(/C=C/COCc2ccc3c(ccc(=O)n3C)c2)CCOCC1 [Example 6, 4-methoxy-4-[3-((1,2-dihydro-1-methyl-2-oxoquinolin-6-yl)methoxy)-trans-prop-1-enyl]tetrahydropyran]	–	–	inhibition at 0.39 µM [1]: 51%
COC1(/C=C/COCc2ccc(-c3ccccc3)cc2)CCOCC1 [Example 8, 4-methoxy-4-[3-((4-phenylphen-1-yl)methoxy)-trans-prop-1-enyl]tetrahydropyran]	–	11	–
COC1(/C=C/CSc2ccc3ccccc3c2)CCOCC1 [Example 19, 4-methoxy-4-[3-(napth-2-ylthioxy)-trans-prop-1-enyl]tetrahydropyran]	–	–	inhibition at 0.1 µM (at 0.10 μM, human whole blood, read-out: % inhibition of stimulated LTB4 formation in human whole blood): 34%
COC1(/C=C/C(=O)NCc2ccc3ccccc3c2)CCOCC1 [Example 20, 3-(4-methoxytetrahydropyran-4-yl)-N-((napth-2-yl)methyl)-trans-propionyl amide]	0.26	–	–
COC1(/C=C/C(=O)NCc2ccc3c(ccc(=O)n3C)c2)CCOCC1 [Example 21]	–	–	inhibition at 0.39 µM [1]: 50%
COC1(/C=C/COCC#Cc2ccccn2)CCOCC1 [Example 22, 4-methoxy-4-[3-((2-(pyrid-2-yl)ethynyl)methoxy)-trans-propen-1-yl]tetrahydropyran]	–	18	–
